Experimental data taken from ChEMBL document CHEMBL1201862, “PubChem BioAssay data set” (2004).
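A five-concentration, 48-hour dose response in 96-well plates underlies each endpoint, interpolated linearly between surrounding concentrations. The concentration for 50% growth inhibition is given as GI50.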 The source made the active and inactive calls. Rule as the data show it: active = GI50 up to about 1.1 µM and inactive = higher.

What was measured:
Assay in all cases: growth of human tumour cells (NCI), 48 h
[1] = tested on: OVCAR-4
[2] = tested on: NCI-H460
[3] = tested on: LOX IMVI
[4] = tested on: COLO 205
[5] = tested on: TK-10
[6] = tested on: HCT-116
[7] = tested on: SK-OV-3
[8] = tested on: T47D
[9] = tested on: HOP-62
[10] = tested on: CAKI-1
[11] = tested on: OVCAR-3
[12] = tested on: A498
[13] = tested on: UO-31
[14] = tested on: RPMI-8226
[15] = tested on: SK-MEL-5
[16] = tested on: NCI-H522
[17] = tested on: UACC-257
[18] = tested on: HL-60
[19] = tested on: SNB-19

SMILES | GI50 [1] | GI50 [2] | GI50 [3] | GI50 [4] | GI50 [5] | GI50 [6] | GI50 [7] | GI50 [8] | GI50 [9] | GI50 [10] | GI50 [11] | GI50 [12] | GI50 [13] | GI50 [14] | GI50 [15] | GI50 [16] | GI50 [17] | GI50 [18] | GI50 [19]
O=[N+]([O-])c1ccc(NN=C2c3ccccc3Cc3ccccc32)c([N+](=O)[O-])c1 | 13.3 µM (inactive) | 3.91 µM (inactive) | 7.87 µM (inactive) | 4.52 µM (inactive) | > 100 µM (inactive) | 5.37 µM (inactive) | 7.74 µM (inactive) | 35.8 µM (inactive) | 6.92 µM (inactive) | 9.51 µM (inactive) | 2.39 µM (inactive) | > 92 µM (inactive) | > 26.4 µM (inactive) | 8.91 µM (inactive) | 4.27 µM (inactive) | 2.13 µM (inactive) | 6.35 µM (inactive) |  | 
C=CCC1C(=O)Nc2cccc3ncn(c23)C1=O (stereo not drawn) | > 100 µM (inactive) | > 100 µM (inactive) |  | > 100 µM (inactive) |  | > 100 µM (inactive) | > 100 µM (inactive) | > 100 µM (inactive) | > 100 µM (inactive) | > 100 µM (inactive) | > 100 µM (inactive) | > 100 µM (inactive) | > 100 µM (inactive) | > 100 µM (inactive) | > 100 µM (inactive) |  | > 100 µM (inactive) | > 100 µM (inactive) | > 100 µM (inactive)
CCCCCCCCCCOc1ccc(/N=N/c2nnc(-c3ccc(OCCCCC)cc3)s2)cc1 | > 100 µM (inactive) | > 100 µM (inactive) | > 100 µM (inactive) | > 100 µM (inactive) | > 100 µM (inactive) | > 100 µM (inactive) | > 100 µM (inactive) | > 100 µM (inactive) | > 100 µM (inactive) | > 100 µM (inactive) | 97.3 µM (inactive) | 49.4 µM (inactive) |  | > 100 µM (inactive) | > 100 µM (inactive) | > 100 µM (inactive) | 49.9 µM (inactive) |  | > 100 µM (inactive)
CC1=C(C#N)S(=O)(=O)c2c(oc(C)c2C)N1 | > 100 µM (inactive) | > 100 µM (inactive) | > 100 µM (inactive) |  | > 100 µM (inactive) | > 100 µM (inactive) | > 100 µM (inactive) | > 100 µM (inactive) | > 100 µM (inactive) | > 100 µM (inactive) | > 100 µM (inactive) | > 100 µM (inactive) | > 100 µM (inactive) | > 100 µM (inactive) | > 100 µM (inactive) | > 100 µM (inactive) | > 100 µM (inactive) |  | > 100 µM (inactive)
CC(=O)NC1C(OCc2ccccc2)OC(CO)C(O)C1OCC(=O)N[C@@H](C)C(=O)N[C@H](CCC(=O)NCCCCNc1c2ccccc2nc2cccc([N+](=O)[O-])c12)C(N)=O (stereo partly drawn) | 0.957 µM (active) | 0.48 µM (active) | 2.39 µM (inactive) | 0.684 µM (active) | 1.47 µM (inactive) | 0.637 µM (active) | 7.59 µM (inactive) | 1.61 µM (inactive) | 3.69 µM (inactive) | 1.49 µM (inactive) | 3.5 µM (inactive) | 2.16 µM (inactive) | 2.43 µM (inactive) | 1.64 µM (inactive) | 0.516 µM (active) | 0.134 µM (active) | 2.13 µM (inactive) |  | 4.53 µM (inactive)
CNc1nc2n(CCO)c(-c3ccccc3)c(-c3ccccc3)nc-2c(=O)n1 | > 50 µM (inactive) | > 50 µM (inactive) | > 50 µM (inactive) | > 50 µM (inactive) | > 50 µM (inactive) | > 50 µM (inactive) | > 50 µM (inactive) | > 50 µM (inactive) | 22.8 µM (inactive) | > 50 µM (inactive) | 14.8 µM (inactive) | > 50 µM (inactive) | > 50 µM (inactive) | > 50 µM (inactive) | > 50 µM (inactive) | > 50 µM (inactive) | > 50 µM (inactive) |  | > 50 µM (inactive)
